Test results: ChEMBL document CHEMBL2074363, “Human organic anion transporters mediate the transport of tetracycline” (Jpn J Pharmacol, 2002)
Blank lines part the entries; values can stand above or below the molecule they belong to.

Columns and labels:
Type in all cases: functional, cell-based
[1] = biological target: T1, Solute carrier family 22 member 7 (Homo sapiens, UniProt Q9Y694); experiment: TP_TRANSPORTER: inhibition of PGF2alpha uptake (PGF2alpha: 0.005 uM, Minocycline: 5 uM) in OAT2-expressing S2 cells; conditions: s2, 5 µM
T1 sequence (Q9Y694 whole entry): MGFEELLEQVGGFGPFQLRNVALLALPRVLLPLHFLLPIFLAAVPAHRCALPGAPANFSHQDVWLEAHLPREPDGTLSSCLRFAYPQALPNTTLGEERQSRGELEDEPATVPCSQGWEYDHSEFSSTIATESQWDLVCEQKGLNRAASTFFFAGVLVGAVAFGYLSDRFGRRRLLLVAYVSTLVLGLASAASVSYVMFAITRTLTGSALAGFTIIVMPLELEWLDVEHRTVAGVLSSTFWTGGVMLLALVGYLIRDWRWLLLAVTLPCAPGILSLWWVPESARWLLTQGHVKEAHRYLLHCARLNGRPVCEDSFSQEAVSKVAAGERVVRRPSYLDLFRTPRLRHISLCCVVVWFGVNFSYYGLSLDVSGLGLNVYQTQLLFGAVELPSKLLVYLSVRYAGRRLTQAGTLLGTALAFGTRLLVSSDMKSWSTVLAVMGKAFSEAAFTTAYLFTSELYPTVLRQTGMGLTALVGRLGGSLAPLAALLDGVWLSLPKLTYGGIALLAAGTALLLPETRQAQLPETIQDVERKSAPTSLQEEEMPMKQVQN

[2] = biological target: T2, Solute carrier family 22 member 11 (Homo sapiens, UniProt Q9NSA0); experiment: TP_TRANSPORTER: inhibition of E1S uptake (E1S: 0.05 uM, Minocycline: 50 uM) in OAT4-expressing S2 cells; conditions: mouse, s2, 50 µM
T2 sequence (Q9NSA0 whole entry): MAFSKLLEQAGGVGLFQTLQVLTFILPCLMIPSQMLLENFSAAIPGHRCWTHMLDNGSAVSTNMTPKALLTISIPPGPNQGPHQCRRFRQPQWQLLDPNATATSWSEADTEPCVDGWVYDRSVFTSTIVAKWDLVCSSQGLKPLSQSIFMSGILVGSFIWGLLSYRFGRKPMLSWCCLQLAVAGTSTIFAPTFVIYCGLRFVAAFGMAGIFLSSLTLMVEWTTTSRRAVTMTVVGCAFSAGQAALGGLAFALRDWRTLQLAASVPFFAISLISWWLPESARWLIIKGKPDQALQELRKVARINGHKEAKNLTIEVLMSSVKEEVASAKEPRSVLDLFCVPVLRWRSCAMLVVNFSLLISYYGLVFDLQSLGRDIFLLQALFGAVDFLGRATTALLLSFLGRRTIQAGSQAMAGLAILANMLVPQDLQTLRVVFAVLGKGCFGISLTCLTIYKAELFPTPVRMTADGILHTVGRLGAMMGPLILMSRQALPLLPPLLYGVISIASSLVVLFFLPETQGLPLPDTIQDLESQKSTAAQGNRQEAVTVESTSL

[3] = biological target: T3, Organic anion transporter 3 (Homo sapiens, UniProt Q8TCC7); experiment: TP_TRANSPORTER: inhibition of E1S uptake (E1S: 0.05 uM, Minocycline: 50 uM) in OAT3-expressing S2 cells; conditions: s2, 50 µM
T3 sequence (Q8TCC7 whole entry): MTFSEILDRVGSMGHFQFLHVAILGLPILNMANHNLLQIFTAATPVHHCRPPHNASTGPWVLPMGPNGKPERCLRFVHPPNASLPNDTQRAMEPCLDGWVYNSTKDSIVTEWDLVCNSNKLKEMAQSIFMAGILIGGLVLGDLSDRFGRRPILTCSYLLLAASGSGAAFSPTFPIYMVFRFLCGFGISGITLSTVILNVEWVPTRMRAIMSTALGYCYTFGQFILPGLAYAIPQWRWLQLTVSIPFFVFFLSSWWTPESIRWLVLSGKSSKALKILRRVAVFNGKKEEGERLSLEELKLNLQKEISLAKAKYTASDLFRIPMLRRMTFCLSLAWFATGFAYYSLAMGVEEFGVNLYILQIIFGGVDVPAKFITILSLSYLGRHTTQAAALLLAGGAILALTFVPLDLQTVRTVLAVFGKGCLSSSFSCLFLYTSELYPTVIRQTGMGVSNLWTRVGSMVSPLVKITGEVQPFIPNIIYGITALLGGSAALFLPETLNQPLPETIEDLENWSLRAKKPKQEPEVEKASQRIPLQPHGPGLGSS

[4] = biological target: T4, Solute carrier family 22 member 6 (Homo sapiens, UniProt Q4U2R8); experiment: TP_TRANSPORTER: inhibition of PAH uptake (PAH: 5 uM, Minocycline: 500 uM) in OAT1-expressing S2 cells; conditions: s2, 500 µM
T4 sequence (Q4U2R8 whole entry): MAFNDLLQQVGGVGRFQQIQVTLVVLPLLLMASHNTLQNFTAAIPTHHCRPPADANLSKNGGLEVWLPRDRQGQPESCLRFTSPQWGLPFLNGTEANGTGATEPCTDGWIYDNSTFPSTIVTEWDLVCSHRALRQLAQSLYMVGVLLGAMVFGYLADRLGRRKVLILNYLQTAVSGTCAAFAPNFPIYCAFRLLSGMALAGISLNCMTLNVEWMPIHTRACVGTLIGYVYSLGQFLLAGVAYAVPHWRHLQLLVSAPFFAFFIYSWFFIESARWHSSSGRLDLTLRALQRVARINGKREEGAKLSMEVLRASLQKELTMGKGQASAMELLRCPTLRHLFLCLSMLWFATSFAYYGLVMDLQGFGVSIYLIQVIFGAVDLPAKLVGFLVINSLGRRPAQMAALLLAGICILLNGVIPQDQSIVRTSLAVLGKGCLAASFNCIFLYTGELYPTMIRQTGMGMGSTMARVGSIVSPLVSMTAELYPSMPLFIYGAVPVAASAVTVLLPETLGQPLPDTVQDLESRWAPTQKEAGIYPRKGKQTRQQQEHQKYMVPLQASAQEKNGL

[5] = biological target: T2, Solute carrier family 22 member 11; experiment: TP_TRANSPORTER: inhibition of E1S uptake (E1S: 0.05 uM, Doxycycline: 50 uM) in OAT4-expressing S2 cells; conditions: mouse, s2, 50 µM
[6] = biological target: T3, Organic anion transporter 3; experiment: TP_TRANSPORTER: inhibition of E1S uptake (E1S: 0.05 uM, Doxycycline: 50 uM) in OAT3-expressing S2 cells; conditions: s2, 50 µM
[7] = biological target: T4, Solute carrier family 22 member 6; experiment: TP_TRANSPORTER: inhibition of PAH uptake (PAH: 5 uM, Doxycycline: 500 uM) in OAT1-expressing S2 cells; conditions: s2, 500 µM
[8] = biological target: T1, Solute carrier family 22 member 7; experiment: TP_TRANSPORTER: inhibition of PGF2alpha uptake (PGF2alpha: 0.005 uM, Tetracycline: 5 uM) in OAT2-expressing S2 cells; conditions: mouse, s2, 5 µM
[9] = biological target: T2, Solute carrier family 22 member 11; experiment: TP_TRANSPORTER: inhibition of E1S uptake (E1S: 0.05 uM, Tetracycline: 50 uM) in OAT4-expressing S2 cells; conditions: mouse, s2, 50 µM
[10] = biological target: T3, Organic anion transporter 3; experiment: TP_TRANSPORTER: inhibition of E1S uptake (E1S: 0.05 uM, Tetracycline: 50 uM) in OAT3-expressing S2 cells; conditions: mouse, s2, 50 µM
[11] = biological target: T4, Solute carrier family 22 member 6; experiment: TP_TRANSPORTER: inhibition of PAH uptake (PAH: 5 uM, Tetracycline: 1000 uM) in OAT1-expressing S2 cells; conditions: s2, 1000 µM
[12] = biological target: T1, Solute carrier family 22 member 7; experiment: TP_TRANSPORTER: inhibition of PGF2alpha uptake (PGF2alpha: 0.005 uM, Oxytetracycline: 5 uM) in OAT2-expressing S2 cells; conditions: s2, 5 µM
[13] = biological target: T2, Solute carrier family 22 member 11; experiment: TP_TRANSPORTER: inhibition of E1S uptake (E1S: 0.05 uM, Oxytetracycline: 50 uM) in OAT4-expressing S2 cells; conditions: mouse, s2, 50 µM
[14] = biological target: T3, Organic anion transporter 3; experiment: TP_TRANSPORTER: inhibition of E1S uptake (E1S: 0.05 uM, Oxytetracycline: 50 uM) in OAT3-expressing S2 cells; conditions: s2, 50 µM
[15] = biological target: T4, Solute carrier family 22 member 6; experiment: TP_TRANSPORTER: inhibition of PAH uptake (PAH: 5 uM, Oxytetracycline: 500 uM) in OAT1-expressing S2 cells; conditions: mouse, s2, 500 µM
[16] = substrate: CN(C)[C@@H]1C(O)=C(C(N)=O)C(=O)[C@@]2(O)C(O)=C3C(=O)c4c(O)cccc4[C@@](C)(O)[C@H]3C[C@@H]12; experiment: TP_TRANSPORTER: uptake in OAT3-expressing S2 cells
[17] = substrate: CN(C)[C@@H]1C(O)=C(C(N)=O)C(=O)[C@@]2(O)C(O)=C3C(=O)c4c(O)cccc4[C@@](C)(O)[C@H]3C[C@@H]12; experiment: TP_TRANSPORTER: uptake in OAT2-expressing S2 cells
[18] = substrate: CN(C)[C@@H]1C(O)=C(C(N)=O)C(=O)[C@@]2(O)C(O)=C3C(=O)c4c(O)cccc4[C@@](C)(O)[C@H]3C[C@@H]12; experiment: TP_TRANSPORTER: uptake in OAT4-expressing S2 cells

Activity [2]: is not an inhibitor [-]
Activity [3]: is not an inhibitor [-]
Molecule: CN(C)c1ccc(O)c2c1C[C@H]1C[C@H]3[C@H](N(C)C)C(O)=C(C(N)=O)C(=O)[C@@]3(O)C(O)=C1C2=O [MINOCYCLINE]
Activity [1]: inhibitor [(at a rough estimate) 80 % of control]
Activity [4]: inhibitor [(at a rough estimate) 10 % of control]

Activity [5]: is not an inhibitor [-]
Activity [6]: is not an inhibitor [-]
Molecule: C[C@H]1c2cccc(O)c2C(=O)C2=C(O)[C@]3(O)C(=O)C(C(N)=O)=C(O)[C@@H](N(C)C)[C@@H]3[C@@H](O)[C@@H]21.O [DOXYCYCLINE]
Activity [7]: inhibitor [(at a rough estimate) 25 % of control]

Activity [10]: is not an inhibitor [-]
Molecule: CN(C)[C@@H]1C(O)=C(C(N)=O)C(=O)[C@@]2(O)C(O)=C3C(=O)c4c(O)cccc4[C@@](C)(O)[C@H]3C[C@@H]12 [TETRACYCLINE]
Activity [8]: inhibitor [(at a rough estimate) 85 % of control]
Activity [9]: inhibitor [(at a rough estimate) 75 % of control]
Activity [11]: inhibitor [(at a rough estimate) 45 % of control]

Activity [13]: is not an inhibitor [-]
Activity [14]: is not an inhibitor [-]
Molecule: CN(C)[C@@H]1C(O)=C(C(N)=O)C(=O)[C@@]2(O)C(O)=C3C(=O)c4c(O)cccc4[C@@](C)(O)[C@H]3[C@H](O)[C@@H]12 [OXYTETRACYCLINE]
Activity [12]: inhibitor [(at a rough estimate) 80 % of control]
Activity [15]: inhibitor [(at a rough estimate) 20 % of control]

B1: Organic anion transporter 3 (Homo sapiens) (protein)
chain: MTFSEILDRVGSMGHFQFLHVAILGLPILNMANHNLLQIFTAATPVHHCRPPHNASTGPWVLPMGPNGKPERCLRFVHPPNASLPNDTQRAMEPCLDGWVYNSTKDSIVTEWDLVCNSNKLKEMAQSIFMAGILIGGLVLGDLSDRFGRRPILTCSYLLLAASGSGAAFSPTFPIYMVFRFLCGFGISGITLSTVILNVEWVPTRMRAIMSTALGYCYTFGQFILPGLAYAIPQWRWLQLTVSIPFFVFFLSSWWTPESIRWLVLSGKSSKALKILRRVAVFNGKKEEGERLSLEELKLNLQKEISLAKAKYTASDLFRIPMLRRMTFCLSLAWFATGFAYYSLAMGVEEFGVNLYILQIIFGGVDVPAKFITILSLSYLGRHTTQAAALLLAGGAILALTFVPLDLQTVRTVLAVFGKGCLSSSFSCLFLYTSELYPTVIRQTGMGVSNLWTRVGSMVSPLVKITGEVQPFIPNIIYGITALLGGSAALFLPETLNQPLPETIEDLENWSLRAKKPKQEPEVEKASQRIPLQPHGPGLGSS
Km [16]: 566 µM

B2: Solute carrier family 22 member 7 (Homo sapiens) (protein)
chain: MGFEELLEQVGGFGPFQLRNVALLALPRVLLPLHFLLPIFLAAVPAHRCALPGAPANFSHQDVWLEAHLPREPDGTLSSCLRFAYPQALPNTTLGEERQSRGELEDEPATVPCSQGWEYDHSEFSSTIATESQWDLVCEQKGLNRAASTFFFAGVLVGAVAFGYLSDRFGRRRLLLVAYVSTLVLGLASAASVSYVMFAITRTLTGSALAGFTIIVMPLELEWLDVEHRTVAGVLSSTFWTGGVMLLALVGYLIRDWRWLLLAVTLPCAPGILSLWWVPESARWLLTQGHVKEAHRYLLHCARLNGRPVCEDSFSQEAVSKVAAGERVVRRPSYLDLFRTPRLRHISLCCVVVWFGVNFSYYGLSLDVSGLGLNVYQTQLLFGAVELPSKLLVYLSVRYAGRRLTQAGTLLGTALAFGTRLLVSSDMKSWSTVLAVMGKAFSEAAFTTAYLFTSELYPTVLRQTGMGLTALVGRLGGSLAPLAALLDGVWLSLPKLTYGGIALLAAGTALLLPETRQAQLPETIQDVERKSAPTSLQEEEMPMKQVQN
Km [17]: 440 µM

B3: Solute carrier family 22 member 11 (Homo sapiens) (protein)
chain: MAFSKLLEQAGGVGLFQTLQVLTFILPCLMIPSQMLLENFSAAIPGHRCWTHMLDNGSAVSTNMTPKALLTISIPPGPNQGPHQCRRFRQPQWQLLDPNATATSWSEADTEPCVDGWVYDRSVFTSTIVAKWDLVCSSQGLKPLSQSIFMSGILVGSFIWGLLSYRFGRKPMLSWCCLQLAVAGTSTIFAPTFVIYCGLRFVAAFGMAGIFLSSLTLMVEWTTTSRRAVTMTVVGCAFSAGQAALGGLAFALRDWRTLQLAASVPFFAISLISWWLPESARWLIIKGKPDQALQELRKVARINGHKEAKNLTIEVLMSSVKEEVASAKEPRSVLDLFCVPVLRWRSCAMLVVNFSLLISYYGLVFDLQSLGRDIFLLQALFGAVDFLGRATTALLLSFLGRRTIQAGSQAMAGLAILANMLVPQDLQTLRVVFAVLGKGCFGISLTCLTIYKAELFPTPVRMTADGILHTVGRLGAMMGPLILMSRQALPLLPPLLYGVISIASSLVVLFFLPETQGLPLPDTIQDLESQKSTAAQGNRQEAVTVESTSL
Km [18]: 123 µM
